According to US5310938A, “Substituted arylpyrrole compounds” (American Cyanamid Company, priority 1993, dated 1994):

Tested on: Caenorhabditis elegans
Experiment: Nematicidal activity against C. elegans (motility rating)
Format: in vivo, C. elegans (Bristol strain)
Parameters: key: 9: complete kill; 8: no motility; 7: markedly reduced motility in approximately 95% of worms; 6: reduced motility; 5: slightly reduced motility; 0: normal motility, same as controls
Conditions: read at 4 and 24 hours post-immersion
Experimental: Cultures of C. elegans (Bristol strain from J. Lewis) are maintained on E. coli lawns on NG Agar Plates at 20° C. New cultures are established weekly.
Nematodes for testing are washed from 4-5 day old cultures using Fresh Ascaris Ringers Solution (FARS). The worms are further washed with FARS,-containing gentamycin, to reduce bacterial contamination and centrifuged to separate worms from wash solution. This procedure is repeated three times. The washed worms are then added to C. brigassae Maintenance Medium (CbMM), from GIBCOa to which is added gentamycin (600 units/ml) and mycostatin (0.5 mg/ml).
Compounds are dissolved in acetone and made up to volume with equal parts of water. The final test concentration of each compound in the mixture is 150 ppm. The test material is micropipetted (25 ul) into a single well of a 96-well sterile tissue culture plate (COSTAR)^b and the solvent allowed to evaporate. These "treated" plates are used immediately or stored in a refrigerator without apparent adverse effects on the compounds.
A freshly prepared volume ([…]) of C. elegans in CbMM is micropipetted into each treated well and several control wells per plate. Culture plates are incubated at 20° C.
Observations for efficacy are made under a dissecting microscope at 4 and 24 hours post-immersion. Immediately prior to reading the plate, it is gently tapped to stimulate the movement of the worms. Activity is judged based on the drug effects on motility of the adults and larvae. […] Other factors indicating activity are easily noted such as death, rigor mortis, contraction, coiling, paralysis, abnormal twitching, reduced worm population in 48 hours and other deviation from normal behavior.
Day 0 Inoculate E. Coli-NG Agar Dish With 30-40
Day 4 Harvest New C. Elegans Population
Add C. Elegans (25-100 µL) To "Medicated"
Observe for Activity at 4 hours Post-
Day 5 Observe For Activity

Row | Compound | Rating Against C. Elegans 150 ppm
1 | 4,5-Dichloro-1-(hydromethyl)-2-(α,α,α-trifluoro-P-tolyl) | 9
2 | C=CCn1c(Cl)c(Cl)c(C#N)c1-c1ccc(Cl)c(Cl)c1 [1-Alkyl-4,5-dichloro-2-(3,4-dichlorophenyl)pyrrole-3-carbonitrile] | 9
3 | N#Cc1c(Br)c(C#N)n(Cc2ccccc2)c1-c1ccc(Cl)cc1 [1-Benzyl-3-bromo-5-(P-chlorophenyl)pyrrole-2,4-dicarbonitrile] | 9
4 | N#Cc1c(Br)c(Br)n(Cc2ccccc2)c1-c1ccc(C(F)(F)F)cc1 [1-Benzyl-4,5-dibromo-2-(α,α,α-trifluoro-p-tolyl)pyrrole-3-carbonitrile] | 9
5 | O=[N+]([O-])c1c(-c2ccc(C(F)(F)F)cc2)[nH]c(Cl)c1Cl [2,3-Dichloro-4-nitro-5-(α,α,α-Trifluoro-p-tolylpyrrole] | 9
6 | O=[N+]([O-])c1c(-c2ccc(Cl)c(Cl)c2)[nH]c(Cl)c1Cl [2,3-Dichloro-5-(3,4-dichlorophenyl)-4-nitropyrrole] | 9
7 | N#Cc1c(Br)[nH]c(-c2ccc(C(F)(F)F)cc2)c1Br [2,4-Dibromo-5-(α,α,α-trifluoro-P-tolyl)pyrrole-3-carbonitrile] | 9
8 | O=[N+]([O-])c1c(Cl)[nH]c(Cl)c1-c1ccc(Cl)c(Cl)c1 [2,5-Dichloro-3-(3,4-dichlorophenyl)-4-nitropyrrole] | 9
9 | O=[N+]([O-])c1cc([N+](=O)[O-])c(-c2ccc(Br)cc2)[nH]1 [2-(P-bromophenyl)-3,5-dimitropyrrole] | 9
10 | O=[N+]([O-])c1c(-c2ccc(Br)cc2)[nH]c(Cl)c1Cl [2-(P-bromophenyl)-4,5-dichloro-3-nitropyrrole] | 9
11 | N#Cc1c(-c2ccc(Cl)cc2)[nH]c(C(F)(F)F)c1C(F)(F)F [2-(P-chlorophenyl)-4,5-bis(trifluoromethyl)pyrrole-3-carbonitrile] | 9
12 | N#Cc1cc([N+](=O)[O-])[nH]c1-c1ccc(Cl)cc1 [2-(p-chlorophenyl)-5-nitropyrrole-3-carbonitrile] | 9
13 | N#Cc1c(Br)[nH]c(C(F)(F)F)c1-c1ccc(Cl)cc1 [2-Bromo-4-(P-chlorophenyl)-5-(trifluoromethyl)pyrrole-3-carbonitrile] | 9
14 | N#Cc1c(Br)[nH]c(C(F)(F)F)c1-c1ccccc1 [2-Bromo-4-phenyl-5-(trifluoromethyl)pyrrole-3-carbonitrile] | 9
15 | N#Cc1[nH]c(-c2ccc(Cl)c(Cl)c2)c(Br)c1Br [3,4-dibromo-5-(3,4-dichlorophenyl)pyrrole-2-carbonitrile] | 9
16 | N#Cc1[nH]c(Br)c(-c2ccc(Cl)cc2)c1Br [3,5-Dibromo-4-(p-chlorophenyl)pyrrole-2-carbonitrile] | 9
17 | FC(F)(F)c1[nH]ccc1-c1ccc(Cl)cc1 [3-(P-chlorophenyl)-2-(trifluoromethyl)pyrrole] | 9
18 | O=[N+]([O-])c1c[nH]cc1-c1ccc(Cl)cc1 [3-(P-chlorophenyl)-4-nitro-pyrrole] | 9
19 | N#Cc1[nH]ccc1-c1ccc(Cl)cc1 [3-(P-chlorophenyl)pyrrole-2-carbonitrile, 3-(p-chlorophenyl)-pyrrole-2-carbonitrile] | 9
20 | N#Cc1[nH]c(-c2ccc(Cl)c(Cl)c2)c([N+](=O)[O-])c1Br [3-Bromo-5-(3,4-dichlorophenyl)-4-nitropyrrole-2-carbonitrile] | 9
21 | N#CCn1c(-c2ccc(Cl)cc2)c(C#N)c(Br)c1C(F)(F)F [3-Bromo-5-(P-chlorophenyl)-4-cyano-2-(trifluoromethyl)-pyrrole-1-acetonitrile] | 9
22 | N#Cc1[nH]c(-c2ccc(OC(F)(F)F)cc2)c(C#N)c1Br [3-Bromo-5-[P-(trifluoromethoxy)phenyl]-pyrrole-2-4-dicarbonitrile] | 9
23 | O=[N+]([O-])c1c[nH]cc1-c1ccccc1 [3-Nitro-4-phenylpyrrole] | 9
24 | N#Cc1c(-c2ccccc2Cl)[nH]c(Br)c1Br [4,5-Dibromo-2-(0-chlorophenyl)-pyrrole-3-carbonitrile] | 9

Row | Compound | Rating Against C. Elegans 150 ppm
25 | N#Cc1ccc(-c2[nH]c(Br)c(Br)c2C#N)cc1 [4,5-Dibromo-2-(P-cyanophenyl)-pyrrole-3-carbonitrile] | 9
26 | N#Cc1c(-c2ccc([N+](=O)[O-])cc2)[nH]c(Br)c1Br [4,5-Dibromo-2-(P-nitrophenyl)-pyrrole-3-carbonitrile] | 9
27 | N#Cc1c(-c2ccc(C(F)(F)F)cc2)[nH]c(Br)c1Br [4,5-Dibromo-2-(α,α,α-trifluoro-p-tolyl)pyrrole-3-carbonitrile] | 9
28 | CS(=O)(=O)c1ccc(-c2[nH]c(Br)c(Br)c2C#N)cc1 [4,5-Dibromo-2-[P-(methylsulfonyl)phenyl]-pyrrole-3-carbonitrile] | 9
29 | COCCn1c(Cl)c(Cl)c(C#N)c1-c1ccc(C(F)(F)F)cc1 [4,5-Dichloro-1-(methoxyethyl)-2-(α,α,α-trifluoro-P-tolyl)pyrrole-3-carbonitrile] | 9
30 | CN(C)CCn1c(Cl)c(Cl)c(C#N)c1-c1ccc(Cl)c(Cl)c1 [4,5-Dichloro-2-(3,4-dichlorophenyl)-1-[2-(dimethylamino)ethyl]pyrrole-3-carbonitrile] | 9
31 | CSCCn1c(Cl)c(Cl)c(C#N)c1-c1ccc(Cl)c(Cl)c1 [4,5-Dichloro-2-(3,4-dichlorophenyl)-1[2-(methylthio)ethyl]pyrrole-3-carbonitrile] | 9
32 | N#Cc1ccc(-c2[nH]c(Cl)c(Cl)c2C#N)cc1 [4,5-Dichloro-2-(P-cyanophenyl)-pyrrole-3-carbonitrile] | 9
33 | N#Cc1c(-c2ccc([N+](=O)[O-])cc2)[nH]c(Cl)c1Cl [4,5-Dichloro-2-(P-nitrophenyl)-pyrrole-3-carbonitrile] | 9
34 | N#Cc1c(-c2ccc(C(F)(F)F)cc2)[nH]c(Cl)c1Cl [4,5-Dichloro-2-(α,α,α-trifluoro-P-tolylpyrrole-3-carbonitrile] | 9
35 | CCOCn1c(-c2ccc(C(F)(F)F)cc2)c(C#N)c(Br)c1C(F)(F)F [4-Bromo-1-(ethoxymethyl)-5-(trifluoromethyl)-2-(α,α,α-trifluoro-P-tolyl)-pyrrole-3-carbonitrile] | 9
36 | CCOCn1c(-c2ccc(Cl)cc2Cl)c(C#N)c(Br)c1C(F)(F)F [4-Bromo-2-(2,4-Dichlorophenyl)-1-(ethoxymethyl)-5-(trifluoromethyl)pyrrole-3-carbonitrile] | 9
37 | N#Cc1c(-c2ccc(Cl)cc2Cl)[nH]c(C(F)(F)F)c1Br [4-Bromo-2-(2,4-dichlorophenyl)-5-(trifluoromethyl)pyrrole-3-carbonitrile] | 9
38 | N#Cc1c(-c2ccc(Cl)c(Cl)c2)[nH]c(C(F)(F)F)c1Br [4-Bromo-2-(3,4-dichlorophenyl)-5-(trifluoromethyl)pyrrole-3-carbonitrile] | 9
39 | N#Cc1c(-c2ccc(Cl)c(Cl)c2)[nH]c([N+](=O)[O-])c1Br [4-Bromo-2-(3,4-dichlorophenyl-5-nitropyrrole-3-carbonitrile] | 9
40 | COCn1c(-c2ccc(Cl)cc2)c(C#N)c(Br)c1C(F)(F)F [4-Bromo-2-(P-chlorophenyl)-1-(1-methoxymethyl)-5-(trifluoromethyl)pyrrole-3-carbonitrile] | 9
41 | N#Cc1c(-c2cccc([N+](=O)[O-])c2)[nH]c(C(F)(F)F)c1Br [4-Bromo-2-(m-nitrophenyl)-5-(trifluoromethyl)pyrrole-3-carbonitrile] | 9
42 | N#Cc1c(-c2ccc(Cl)cc2)[nH]c(C(F)(F)F)c1Br [4-Bromo-2-(p-chlorophenyl)-5-(trifluoromethyl)pyrrole-3-carbonitrile] | 9
43 | N#Cc1c(-c2ccc(C(F)(F)F)cc2)[nH]c([N+](=O)[O-])c1Br [4-Bromo-5-nitro-2-(α,α,α-trifluoro-P-tolyl)pyrrole-3-carbonitrile] | 9
44 | N#Cc1c[nH]c(C(F)(F)F)c1-c1ccccc1 [4-Phenyl-5-(trifluoromethyl)pyrrole-3-carbonitrile] | 9
45 | N#Cc1cc([N+](=O)[O-])c(-c2ccc(Cl)c(Cl)c2)[nH]1 [5(3,4-Dichlorophenyl)-4-nitropyrrole-2-carbonitrile] | 9
46 | N#Cc1cc(C#N)c(-c2ccc(Cl)c(Cl)c2)[nH]1 [5-(3,4-Dichlorophenyl)-pyrrole-3-dicarbonitrile] | 9
47 | N#Cc1c[nH]c(-c2ccc(C(F)(F)F)cc2)c1 [5-(α,α,α-trifluoro-tolyl)-pyrrole-3-carbonitrile] | 9
